Patent US10213449B2, “Compositions and methods for treating medulloblastoma” (The Board of Trustees of the Leland Stanford Junior …, priority 2016, dated 2019)
Entries after “also recorded” stand apart in the source; their conditions may differ.

Legend:
Format in all cases: cell-based, mouse
[1] = test system: Hh signaling in NIH 3T3s stimulated with SAG; test: RT-qPCR of Gli1 in NIH 3T3s stimulated with SAG (epistasis study); details: NIH 3T3s stimulated with SAG; dose-responsive
Experimental: (§1) Epistasis studies were next performed to determine where in the hedgehog pathway CK2 acts. The effect of TBB was examined: (i) in NIH 3T3s stimulated with SAG, a SMO agonist, (ii) in Sufu−/− mouse embryonic fibroblasts (MEF), and (iii) in NIH 3T3 cells overexpressing GLI2 (FIG. 3d-3f).
NIH3T3s or SUFU−/− MEFs were plated in 6 well plates at 400,000 cells/well in 10% FBS media constituted of DMEM (Invitrogen11960-069) supplemented with 10% FBS (Hyclone Labs SH30070.02), pen/strep (Life Technologies 15140-122), sodium pyruvate (Invitrogen 11360-070) and glutamax (Invitrogen 35050-061). Cells were then starved in 0.5% FBS for 24 h prior to treatment with 25% ShhN conditioned media in 0.5% FBS+/− drug treatment. GliΔN were treated 48 h post transfection. Unless otherwise stated, all treatments were performed for 6 h. Cell lysis and RNA extraction was performed using Qiashredder homogenizers (Qiagen 79654) and RNEasy mini kits (qiagen 74104) as per manufacturer's instructions. RNA was quantified on a nanodrop spectrophotometer (nanoddrop technologies ND-2000C). Transcript quantification was performed using a TaqMan RNA-to-Ct 1-Step Kit (Life technologies, 4392656) and the Applied Biosystems 7500 RT-PCR system as per the manufacturer's instructions. […]

[2] = test system: Hh signaling in NIH 3T3 cells overexpressing GLI2 (HA-Gli2ΔN); test: RT-qPCR of Gli1 in NIH 3T3 cells expressing Gli2ΔN (epistasis study); details: 3T3 cells with forced expression of HA-Gli2ΔN
From the text: as §1
Sufu^−/− MEFs (conditional deletion of exons 4-8) were kindly provided by Pao-Tien Chang (UCSF). SAG (S7779), GDC-0449 (Vismodegib, S1082) and CX-4945 (Silmitasertib, S2248) was purchased from SelleckChem.com. TBB was purchased from EMD (218697). Shh-N conditional medium was made using a HEK 293 cell line that stably secretes ShhN as previously described. Myc-GL12-DN (17649, pCS2-MT-GLI2-deltaN) plasmid was purchased from Addgene (Cambridge, Mass., USA). […]
NIH3T3s or SUFU−/− MEFs were plated in 6 well plates at 400,000 cells/well in 10% FBS media constituted of DMEM (Invitrogen11960-069) supplemented with 10% FBS (Hyclone Labs SH30070.02), pen/strep (Life Technologies 15140-122), sodium pyruvate (Invitrogen 11360-070) and glutamax (Invitrogen 35050-061). […] RNA was quantified on a nanodrop spectrophotometer (nanoddrop technologies ND-2000C). Transcript quantification was performed using a TaqMan RNA-to-Ct 1-Step Kit (Life technologies, 4392656) and the Applied Biosystems 7500 RT-PCR system as per the manufacturer's instructions. […]

[3] = test system: Brd4 occupancy at Gli1 and Gli2 promoters; test: Brd4 ChIP-qPCR in NIH3T3s stimulated with SHH
Experimental: It was therefore investigated whether CK2 regulates Brd4-mediated transactivation of the Gli promoters. Chromatin immunoprecipitation (ChIP) was performed in NIH3T3s stimulated with SHH using anti-Brd4 antibodies, followed by quantitative PCR (qPCR) of regions flanking the transcription start sites within the Gli1 and Gli2 promoters.
Wildtype CD1-Elite (Charles River strain 482) P7 mice were randomized to control or treatment groups then given two injections of DMSO (control) or TBB (30 mg/kg) q12h×2. Mice were sacrificed and GNPs were isolated as described in “GNP isolation”. Chomatin immunoprecipitation was performed as previously described. GNPs were cross-linked in 1% formaldehyde for 10 minutes at RT then fixation was stopped by adding 2.5M glycine for 10 minutes. Samples were washed and stored at −80 until all samples were collected. Crosslinked cells were later thawed on ice, incubated in chilled RIPA for 10 min and sonicated 7×15 min. To prepare blocking beads, 60 uL/sample of protein G beads (Roche 11719416001) were incubated with 5% BSA on a rocker at 4 degrees for at least 1 h. […] ChIP and input DNA was quantified using Qubit DS DNA HS assay as per manufacturer's protocol (ThermoFisher Q32851). […] Library was quantified via Qubit DS DNA HS assay and library quality was determined using an Agilent 2100 Bioanalyzer. […]

[4] = test system: Hh signaling in GNPs; test: Transcript levels in GNPs following Hh stimulation

Brc1c(Br)c(Br)c2[nH]nnc2c1Br [TBB, 4,5,6,7-tetrabromo-2H-benzotriazole]
Gli1 mRNA levels (effect of inhibitor) [1]: substantially decreased; also recorded: dose dependent loss of Gli1 expression | Gli1 mRNA levels [2]: inhibited; also recorded: dose dependent loss of Gli1 expression | Brd4 occupancy at Gli1 promoter [3]: blocked | Brd4 occupancy at Gli2 promoter [3]: blocked | Gli1 transcript levels [4]: no change | Gli2 transcript levels [4]: effective at decreasing | Ptch transcript levels [4]: effective at decreasing
